Reference: patent US20050020565A1, “CCK-1 receptor modulators” (priority 2003, published 2005)

Molecular target: T1, CCK-1 receptor (Homo sapiens, UniProt P32238)
T1 construct: expressed in transfected cells; membranes
T1 sequence (P32238 1-428): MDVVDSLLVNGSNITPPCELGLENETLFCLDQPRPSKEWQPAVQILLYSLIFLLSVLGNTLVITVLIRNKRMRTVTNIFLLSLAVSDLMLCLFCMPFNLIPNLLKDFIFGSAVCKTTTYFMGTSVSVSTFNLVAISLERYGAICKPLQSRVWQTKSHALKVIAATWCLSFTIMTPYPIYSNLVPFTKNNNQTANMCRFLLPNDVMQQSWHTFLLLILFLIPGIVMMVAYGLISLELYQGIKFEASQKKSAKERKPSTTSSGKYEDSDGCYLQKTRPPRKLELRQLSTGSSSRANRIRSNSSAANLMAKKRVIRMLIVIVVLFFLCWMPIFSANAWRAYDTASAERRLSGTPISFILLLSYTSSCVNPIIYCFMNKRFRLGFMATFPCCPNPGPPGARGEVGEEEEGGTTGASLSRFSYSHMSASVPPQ
Assay: CCK-1 receptor radioligand binding assay ([125I]-BH-CCK-8S displacement, membranes of stably transfected CHO-K1 cells)
Conditions: membranes of CHO-K1 cells stably transfected with CCK-1 receptor, 0.3 μM PD-134,308 present
Description: CHO-K1 cells that had undergone-stable transfection with the CCK-1 receptor were grown in DMEM supplemented with L-glutamine (2 mM), penicillin (50 units/mL) and streptomycin (50 μg/mL). Cells were cultured under continuous G418 selection (2 mM) and were harvested using a rubber cell scraper. CHO-K1 cells were sub-cultured a maximum of ten times before being reseeded from the original stocks.
Membranes were prepared from the stably transfected CHO-K1 cells. Frozen cell pellets (−40° C.) were thawed in 14 mL of buffer A (10 mM HEPES, 130 mM NaCl, 4.7 mM KCl, 5 mM MgCl, 1 mM EGTA and 15.4 mg/100 mL bacitracin at pH 7.2), adapted from Harper et al. (Br. J. Pharmacol. (1996) 118, pp 1717-1726). The thawed pellets were homogenized using a Polytron PT-10 (7×1 s). The homogenates were centrifuged for 5 min at 1500 rpm (600×g), and the resulting pellets were discarded. The supernatants were re-centrifuged in order to collect the receptor-membrane pellets (25 min 15,000 rpm; 39,800×g), which were re-suspended in buffer A.
All assays were conducted in 96-well plates (GF/B millipore filter plates) using buffer A, with 0.3 μM PD-134,308, for the dilutions. The CCK-2 receptor ligand was included to eliminate the contribution of this receptor subtype to the binding. For the optimal cell number determination experiments 20 pM [1251]-BH—CCK-8S (50 μL 60 pM solution) was incubated with a range of cell concentrations (2.5×105 to 12.5×10^5 cells/well) in a total volume of 150 μL. Total binding of [1251]-BH—CCK-8S was determined in the presence of 15 μL of buffer A. Non-specific binding of [1 251]-BH—CCK-8S was determined in the presence of 15 μL of 100 μM 2-naphthalenesulphonyl L-aspartyl-(2-phenethyl)amide (2-NAP: see R. A. Hull et al., Br. J. Pharmacol. (1993) 108, pp 734-740), a CCK-1 receptor selective antagonist that is structurally unrelated to the radioligand [1251]-BH—CCK-8S. The assay preparation was incubated for 1 h at 21±3° C., and then the assay was terminated upon rapid filtration of the preparation under reduced pressure. The loaded filters were washed three times using undiluted PBS (100 μL), and then the residues were transferred to 5 mL scintillation tubes. Bound radioactivity was determined using a gamma counter (count time=1 min). From these experiments a cell concentration of 1 pellet in 40 mL of buffer (2.5×10^6 cells/mL) was chosen for use in other assays (below). To validate the radioligand concentration and incubation time for the assay, saturation and kinetic binding studies were also conducted (see M. F. Morton, The Pharmacological Characterization of Cholecystokinin Receptors in the Human Gastrointestinal Tract. PhD Thesis, University of London, 2000). The affinity of novel compounds was estimated by incubating membrane preparations with 15 μL of competing ligand (0.1 pM-1 mM) for 60 min at 21±3° C. The assay was then terminated according to the procedure outlined above.
The pKi values were determined using the equation of Cheng and Prusoff (Biochem. Pharmacol. (1973) 22, pp 3099-3108): [formula]
To circumvent problems associated with computer-assisted data analysis of compounds with low affinity, the data obtained in the current study were weighted according to a method described by Morton (2000). In brief, 100% and 0% specific binding were defined independently using total binding and binding obtained in the presence of a high concentration of the reference antagonist, 2-NAP.

| Compound | Ki [nM] |
| --- | --- |
| O=C(O)/C(=C\c1cc(-c2ccc3ccccc3c2)n(-c2cc(Cl)ccc2Cl)n1)c1cccc(Cl)c1 [Example 112] | 3.98 |
| COc1ccc(-n2nc(/C=C(\C(=O)O)c3cccc(Cl)c3)cc2-c2ccc(Cl)c(Cl)c2)cc1 [Example 115] | 6.31 |
| COc1ccc(-n2nc(/C=C(\C(=O)O)c3ccc(Cl)c(Cl)c3)cc2-c2ccc(Cl)c(Cl)c2)cc1 [Example 118] | 5.01 |
| COc1ccc(-n2nc(/C=C(\C(=O)O)c3cccc(C)c3)cc2-c2ccc(Cl)c(Cl)c2)cc1 [Example 120] | 10 |
| CCOc1ccc(-n2nc(/C=C(\C(=O)O)c3cccc(Cl)c3)cc2-c2ccc3c(c2)OCO3)cc1 [Example 121] | 7.94 |
| O=C(O)/C(=C\c1cc(-c2ccc3c(c2)OCO3)n(-c2cc(Cl)ccc2Cl)n1)c1cccc(Cl)c1 [Example 122] | 1.58 |
| O=C(O)/C(=C/c1cc(-c2ccc3c(c2)OCO3)n(-c2cc(Cl)ccc2Cl)n1)c1cccc(Cl)c1 [Example 123] | 251 |
| COc1ccc(-n2nc(/C=C(/C(=O)O)c3ccc(Cl)c(Cl)c3)cc2-c2ccc(Cl)c(Cl)c2)cc1 [Example 124] | 39.8 |
| COc1ccc(-n2nc(C[C@@H](c3cccc(C)c3)c3nnn[nH]3)cc2-c2ccc(Cl)c(Cl)c2)cc1 [Example 129] | 15.8 |
| COc1ccc(-n2nc(C[C@H](c3cccc(C)c3)c3nnn[nH]3)cc2-c2ccc(Cl)c(Cl)c2)cc1 [Example 131] | 126 |
| Clc1cccc(C(Cc2cc(-c3ccc4c(c3)OCO4)n(-c3cc(Cl)ccc3Cl)n2)c2nnn[nH]2)c1 (stereo not drawn) [Example 132] | 10 |
| Cc1ccc(-c2cc(CC(C[S+]([O-])c3ncn[nH]3)c3cccc(C)c3)nn2-c2ccc(C)cc2)cc1 (stereo not drawn) [Example 136] | 6.31 |
| Cc1ccc(-c2cc(CC(CS(=O)(=O)c3ncn[nH]3)c3cccc(C)c3)nn2-c2ccc(C)cc2)cc1 (stereo not drawn) [Example 137] | 10 |
| COc1ccc(-n2nc(C[C@H](CS(=O)(=O)c3ncn[nH]3)c3cccc(C)c3)cc2-c2ccc(Cl)c(Cl)c2)cc1 [Example 138] | 31.6 |
| COc1ccc(-n2nc(CC(C(=O)O)c3cccc(C)c3)cc2-c2ccc(C)cc2)cc1 (stereo not drawn) [Example 148] | 15.8 |
| COc1ccc(-n2nc(C[C@@H](C(=O)O)c3cccc4ccccc34)cc2-c2ccc(C)cc2)cc1 [Example 151] | 200 |
| COc1ccc(-n2nc(C[C@H](C(=O)O)c3cccc4ccccc34)cc2-c2ccc(C)cc2)cc1 [Example 152] | 12.6 |
| COc1ccc(-n2nc(CC(C(=O)O)c3cccc4sccc34)cc2-c2ccc(C)cc2)cc1 (stereo not drawn) [Example 153] | 15.8 |
| Cc1ccc(-c2cc(CC(C(=O)O)c3cccc(C)c3)nn2-c2ccc(Cl)cc2)cc1 (stereo not drawn) [Example 155] | 10 |
| COc1cccc(C(Cc2cc(-c3ccc(C)cc3)n(-c3ccc(Cl)cc3)n2)C(=O)O)c1 (stereo not drawn) [Example 157] | 12.6 |
| Cc1ccc(-c2cc(CC(C(=O)O)c3cccc4ccccc34)nn2-c2ccc(C)cc2)cc1 (stereo not drawn) [Example 167] | 12.6 |
| Cc1ccc(-c2cc(CC(C(=O)O)c3cccc(Cl)c3)nn2-c2ccc(C)cc2)cc1 (stereo not drawn) [Example 168] | 7.94 |
| COc1cccc(C(Cc2cc(-c3ccc(C)cc3)n(-c3ccc(C)cc3)n2)C(=O)O)c1 (stereo not drawn) [Example 170] | 7.94 |
| COc1cccc(C(Cc2cc(-c3ccc(C)cc3)n(-c3ccc(C(F)(F)F)cc3)n2)C(=O)O)c1 (stereo not drawn) [Example 177] | 12.6 |
| Cc1ccc(-c2cc(CC(C(=O)O)c3cccc4ccccc34)nn2-c2ccc(Cl)c(Cl)c2)cc1 (stereo not drawn) [Example 181] | 15.8 |
| Cc1ccc(-c2cc(CC(C(=O)O)c3cccc(Cl)c3)nn2-c2ccc(Cl)c(Cl)c2)cc1 (stereo not drawn) [Example 182] | 12.6 |

| Compound | Ki [nM] |
| --- | --- |
| Cc1ccc(-c2cc(CC(C(=O)O)c3ccc4c(c3)OCO4)nn2-c2ccc(Cl)c(Cl)c2)cc1 (stereo not drawn) [Example 189] | 39.8 |
| Cc1ccc(-c2cc(CC(C(=O)O)c3cccc4sccc34)nn2-c2ccc(Cl)c(Cl)c2)cc1 (stereo not drawn) [Example 190] | 10 |
| Cc1ccc(-c2cc(CC(C(=O)O)c3cccc4ccccc34)nn2Cc2ccccc2)cc1 (stereo not drawn) [Example 195] | 10 |
| COc1ccc(-n2nc(CC(C(=O)O)c3cccnc3)cc2-c2ccc(Cl)cc2)cc1 (stereo not drawn) [Example 208] | 3160 |
| COc1ccc(-n2nc(CC(C(=O)O)c3cccc4ccccc34)cc2-c2ccc(Cl)c(Cl)c2)cc1 (stereo not drawn) [Example 210] | 12.6 |
| COc1ccc(-n2nc(CC(C(=O)O)c3cccc(OC)c3)cc2-c2ccc(Cl)c(Cl)c2)cc1 (stereo not drawn) [Example 211] | 12.6 |
| COc1ccc(-n2nc(CC(C(=O)O)c3cccc(Cl)c3)cc2-c2ccc3c(c2)OCO3)cc1 (stereo not drawn) [Example 221] | 15.8 |
| COc1ccc(-n2nc(CC(C(=O)O)c3cccc(Cl)c3)cc2-c2ccc(Oc3ccccc3)cc2)cc1 (stereo not drawn) [Example 246] | 39.8 |
| COc1ccc(-n2nc(CC(C(=O)O)c3coc4ccccc34)cc2-c2ccc(Cl)c(Cl)c2)cc1 (stereo not drawn) [Example 261] | 12.6 |
| COc1ccc(-n2nc(CC(C(=O)O)c3coc4ccccc34)cc2-c2ccc3c(c2)OCO3)cc1 (stereo not drawn) [Example 262] | 12.6 |
| Cc1ccc(-n2nc(CC(C(=O)O)c3cccc(C)c3)cc2-c2ccc3ccccc3c2)cc1 (stereo not drawn) [Example 271] | 15.8 |
| Cc1cccc(C(Cc2cc(-c3ccc(Cl)c(Cl)c3)n(-c3ccc(C(C)(C)C)cc3)n2)C(=O)O)c1 (stereo not drawn) [Example 275] | 20 |
| Cc1cccc(C(Cc2cc(-c3ccc4c(c3)OCO4)n(-c3ccc(Cl)cc3Cl)n2)C(=O)O)c1 (stereo not drawn) [Example 276] | 6.31 |
| Cc1cccc(C(Cc2cc(-c3ccc(N(C)C)cc3)n(-c3ccc(OC(F)(F)F)cc3)n2)C(=O)O)c1 (stereo not drawn) [Example 287] | 20 |
| Cc1cccc(C(Cc2cc(-c3cccc(Cl)c3)n(C)n2)C(=O)O)c1 (stereo not drawn) [Example 303] | 1260 |
| Cc1cccc(C(Cc2cc(-c3ccc(Oc4ccccc4)cc3)[nH]n2)C(=O)O)c1 (stereo not drawn) [Example 305] | 2000 |
| Cc1cccc(C(Cc2cc(-c3ccc(Br)c(C)c3)n(C3CCCCC3)n2)C(=O)O)c1 (stereo not drawn) [Example 308] | 63.1 |
| COc1cccc2cc(-c3cc(CC(C(=O)O)c4cccc(C)c4)nn3-c3ccc(C)cc3)oc12 (stereo not drawn) [Example 311] | 20 |
| Cc1cccc(C(Cc2cc(-c3ccc4c(c3)OCO4)n(Cc3ccccc3)n2)C(=O)O)c1 (stereo not drawn) [Example 322] | 39.8 |
| Cc1cccc([C@H](Cc2cc(-c3ccc(Cl)c(Cl)c3)n(-c3ccc(O)cc3)n2)C(=O)O)c1 [Example 328] | 20 |
| COc1ccc(-n2nc(CC(C(=O)O)c3cccc(SC(F)(F)F)c3)cc2-c2ccc(Cl)c(Cl)c2)cc1 (stereo not drawn) [Example 334] | 100 |
| Cc1ccc(-c2cc(CC(CSc3ncn[nH]3)c3cccc(C)c3)nn2-c2ccc(C)cc2)cc1 (stereo not drawn) [Example 335] | 31.6 |
| Cc1ccc(-n2nc(CC(C(=O)O)c3cccc(C)c3)cc2-c2ccc(N3CCCCC3)cc2)cc1 (stereo not drawn) [Example 349] | 79.4 |
| Cc1ccc(-n2nc(CC(C(=O)O)c3cccc(C)c3)cc2-c2ccc(N3CCCC3)cc2)cc1 (stereo not drawn) [Example 352] | 31.6 |
| COc1ccc(-n2nc(/C=C(/C(=O)O)c3ccc(C)cc3)cc2-c2ccc(Cl)c(Cl)c2)cc1 [Example 363] | 794 |
